The values that follow come from patent US10253002B2, “Compounds and methods of treating infections” (Neoculi Pty Ltd., priority 2013, dated 2019).

Each structure is given as a SMILES string. Values joined by “and” are separate entries in the source; they are usually repeats but may differ in a detail not shown here. Equal values may be shown once.

The subject of the first assay is Escherichia coli. Briefly: Broth microdilution MIC, Example 7 (NCL812 and analogues). Type of assay: cell-based. As to conditions: E. coli; 24 hours; duplicate lines per compound. (Broth dilution looks for growth in wells or tubes with falling amounts of substance.)
As for `Cl.N=C(NN=Cc1cc(Br)co1)NN=Cc1cc(Br)co1` [NCL 133], the “MIC (μg/ml) at 24 hours, E. coli” value was over 128 µg/mL.
Same read-out and setting: the result for `Cl.N=C(N/N=C/c1ccc(Br)cc1)N/N=C/c1ccc(Br)cc1` [NCL 134] reads over 128 µg/mL.
The same measure, in the same setting: with `COc1cc(Br)c(C=NNC(=N)NN=Cc2cc(OC)c(OC)cc2Br)cc1OC.Cl` [NCL 135] the figure was over 128 µg/mL.
As to `CCCCc1ccc(C=NNC(=N)NN=Cc2ccc(CCCC)cc2)cc1.Cl` [NCL 136], the “MIC (μg/ml) at 24 hours, E. coli” value was over 128 µg/mL.
The same measure, in the same setting: with `Cl.N=C(NN=Cc1c(Cl)cccc1Cl)NN=Cc1c(Cl)cccc1Cl` [NCL 137] the figure was over 128 µg/mL; with `Cl.N=C(NN=CC(=Cc1ccccc1)c1ccccc1)NN=CC(=Cc1ccccc1)c1ccccc1` [NCL 138], over 128 µg/mL; with `Cl.N=C(NN=Cc1cnc2ccccc2c1)NN=Cc1cnc2ccccc2c1` [NCL 139], over 128 µg/mL.
In the case of `CSc1ccc(C=NNC(=N)NN=Cc2ccc(SC)cc2)cc1.Cl` [NCL 140], the “MIC (μg/ml) at 24 hours, E. coli” value is over 128 µg/mL.
Turning to `Cl.N=C(NN=Cc1csc2ccc(Cl)cc12)NN=Cc1csc2ccc(Cl)cc12` [NCL 141], the “MIC (μg/ml) at 24 hours, E. coli” value is over 128 µg/mL.
The same measure, in the same setting: with `Cl.N=C(NNCc1ccccc1)NNCc1ccccc1` [NCL 142] the figure was over 128 µg/mL; with `CC(=NNC(=N)NN=C(C)c1ccccc1)c1ccccc1.Cl` [NCL 143], over 128 µg/mL; with `Cl.N=C(NN=Cc1ccc(Br)o1)NN=Cc1ccc(Br)o1` [NCL 144], over 128 µg/mL.

In a further assay the test system is Pseudomonas aeruginosa. The assay is described as above. As to conditions: P. aeruginosa; 24 hours; duplicate lines per compound. It counts as cell-based.
`Cl.N=C(NN=Cc1cc(Br)co1)NN=Cc1cc(Br)co1` [NCL 133]: the “MIC (μg/ml) at 24 hours, P. aeruginosa” value is over 128 µg/mL.
Still for that read-out and setting: with `Cl.N=C(N/N=C/c1ccc(Br)cc1)N/N=C/c1ccc(Br)cc1` [NCL 134] the figure was over 128 µg/mL; with `COc1cc(Br)c(C=NNC(=N)NN=Cc2cc(OC)c(OC)cc2Br)cc1OC.Cl` [NCL 135], over 128 µg/mL.
Same read-out and setting: with `CCCCc1ccc(C=NNC(=N)NN=Cc2ccc(CCCC)cc2)cc1.Cl` [NCL 136] the figure was over 128 µg/mL; with `Cl.N=C(NN=Cc1c(Cl)cccc1Cl)NN=Cc1c(Cl)cccc1Cl` [NCL 137], over 128 µg/mL.
Same read-out and setting: the result for `Cl.N=C(NN=CC(=Cc1ccccc1)c1ccccc1)NN=CC(=Cc1ccccc1)c1ccccc1` [NCL 138] reads over 128 µg/mL.
For `Cl.N=C(NN=Cc1cnc2ccccc2c1)NN=Cc1cnc2ccccc2c1` [NCL 139], the “MIC (μg/ml) at 24 hours, P. aeruginosa” value is over 128 µg/mL.
`CSc1ccc(C=NNC(=N)NN=Cc2ccc(SC)cc2)cc1.Cl` [NCL 140]: the “MIC (μg/ml) at 24 hours, P. aeruginosa” value was over 128 µg/mL.
On the same count and under the same terms, with `Cl.N=C(NN=Cc1csc2ccc(Cl)cc12)NN=Cc1csc2ccc(Cl)cc12` [NCL 141] the figure was over 128 µg/mL.
Still for that read-out and setting: the result for `Cl.N=C(NNCc1ccccc1)NNCc1ccccc1` [NCL 142] reads over 128 µg/mL; that for `CC(=NNC(=N)NN=C(C)c1ccccc1)c1ccccc1.Cl` [NCL 143], over 128 µg/mL; that for `Cl.N=C(NN=Cc1ccc(Br)o1)NN=Cc1ccc(Br)o1` [NCL 144], over 128 µg/mL.

The next assay has as its system MRSA. Described as above. Type of assay: cell-based, Staphylococcus aureus. As to conditions: MRSA 1; 24 hours; duplicate lines per compound. The procedure, abridged:
(§1)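 MICs in μg/ml were read as growth inhibition by eye, checked at 600 nm absorbance against drug-free wells, following CLSI broth microdilution. Strains: two MRSA, two VRE; duplicates, repeated once more when results diverged beyond one dilution step.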
In the case of `Cl.N=C(NN=Cc1cc(Br)co1)NN=Cc1cc(Br)co1` [NCL 133], the “MIC (μg/ml) at 24 hours, MRSA 1” value was over 128 µg/mL.
Still for that read-out and setting: the result for `Cl.N=C(N/N=C/c1ccc(Br)cc1)N/N=C/c1ccc(Br)cc1` [NCL 134] reads over 128 µg/mL.
On the same count and under the same terms, the result for `COc1cc(Br)c(C=NNC(=N)NN=Cc2cc(OC)c(OC)cc2Br)cc1OC.Cl` [NCL 135] reads over 128 µg/mL; that for `CCCCc1ccc(C=NNC(=N)NN=Cc2ccc(CCCC)cc2)cc1.Cl` [NCL 136], 64 µg/mL.
The same measure, in the same setting: with `Cl.N=C(NN=Cc1c(Cl)cccc1Cl)NN=Cc1c(Cl)cccc1Cl` [NCL 137] the figure was over 128 µg/mL; with `Cl.N=C(NN=CC(=Cc1ccccc1)c1ccccc1)NN=CC(=Cc1ccccc1)c1ccccc1` [NCL 138], over 128 µg/mL; with `Cl.N=C(NN=Cc1cnc2ccccc2c1)NN=Cc1cnc2ccccc2c1` [NCL 139], over 128 µg/mL.
As for `Cl.N=C(NN=Cc1csc2ccc(Cl)cc12)NN=Cc1csc2ccc(Cl)cc12` [NCL 141], the “MIC (μg/ml) at 24 hours, MRSA 1” value was over 128 µg/mL.
With `Cl.N=C(NNCc1ccccc1)NNCc1ccccc1` [NCL 142], the “MIC (μg/ml) at 24 hours, MRSA 1” value was over 128 µg/mL.
Same read-out and setting: the result for `CC(=NNC(=N)NN=C(C)c1ccccc1)c1ccccc1.Cl` [NCL 143] reads 16 µg/mL; that for `Cl.N=C(NN=Cc1ccc(Br)o1)NN=Cc1ccc(Br)o1` [NCL 144], over 128 µg/mL.

The assay is the same for the next values; noted with them: MRSA 2; 24 hours; duplicate lines per compound.
With `Cl.N=C(NN=Cc1cc(Br)co1)NN=Cc1cc(Br)co1` [NCL 133], the “MIC (μg/ml) at 24 hours, MRSA 2” value is over 128 µg/mL.
Same read-out and setting: the result for `Cl.N=C(N/N=C/c1ccc(Br)cc1)N/N=C/c1ccc(Br)cc1` [NCL 134] reads over 128 µg/mL.
On to `COc1cc(Br)c(C=NNC(=N)NN=Cc2cc(OC)c(OC)cc2Br)cc1OC.Cl` [NCL 135], for which the “MIC (μg/ml) at 24 hours, MRSA 2” value was over 128 µg/mL.
Still for that read-out and setting: the result for `CCCCc1ccc(C=NNC(=N)NN=Cc2ccc(CCCC)cc2)cc1.Cl` [NCL 136] reads 128 µg/mL; that for `Cl.N=C(NN=Cc1c(Cl)cccc1Cl)NN=Cc1c(Cl)cccc1Cl` [NCL 137], over 128 µg/mL; that for `Cl.N=C(NN=CC(=Cc1ccccc1)c1ccccc1)NN=CC(=Cc1ccccc1)c1ccccc1` [NCL 138], 32 µg/mL.
On the same count and under the same terms, the result for `Cl.N=C(NN=Cc1cnc2ccccc2c1)NN=Cc1cnc2ccccc2c1` [NCL 139] reads over 128 µg/mL; that for `CSc1ccc(C=NNC(=N)NN=Cc2ccc(SC)cc2)cc1.Cl` [NCL 140], 16 µg/mL and 32 µg/mL; that for `Cl.N=C(NN=Cc1csc2ccc(Cl)cc12)NN=Cc1csc2ccc(Cl)cc12` [NCL 141], over 128 µg/mL.
On the same count and under the same terms, with `Cl.N=C(NNCc1ccccc1)NNCc1ccccc1` [NCL 142] the figure was over 128 µg/mL; with `CC(=NNC(=N)NN=C(C)c1ccccc1)c1ccccc1.Cl` [NCL 143], 16 µg/mL; with `Cl.N=C(NN=Cc1ccc(Br)o1)NN=Cc1ccc(Br)o1` [NCL 144], over 128 µg/mL.

Another assay has as its system VRE. Described as above. It counts as cell-based, Enterococcus spp. As to conditions: VRE 1; 24 hours; duplicate lines per compound. The procedure, abridged: as §1
`Cl.N=C(NN=Cc1cc(Br)co1)NN=Cc1cc(Br)co1` [NCL 133]: the “MIC (μg/ml) at 24 hours, VRE 1” value was over 128 µg/mL.
With `Cl.N=C(N/N=C/c1ccc(Br)cc1)N/N=C/c1ccc(Br)cc1` [NCL 134], the “MIC (μg/ml) at 24 hours, VRE 1” value is over 128 µg/mL.
Still for that read-out and setting: the result for `COc1cc(Br)c(C=NNC(=N)NN=Cc2cc(OC)c(OC)cc2Br)cc1OC.Cl` [NCL 135] reads over 128 µg/mL.
The same measure, in the same setting: with `CCCCc1ccc(C=NNC(=N)NN=Cc2ccc(CCCC)cc2)cc1.Cl` [NCL 136] the figure was 32 µg/mL; with `Cl.N=C(NN=Cc1c(Cl)cccc1Cl)NN=Cc1c(Cl)cccc1Cl` [NCL 137], over 128 µg/mL.
Same read-out and setting: with `Cl.N=C(NN=CC(=Cc1ccccc1)c1ccccc1)NN=CC(=Cc1ccccc1)c1ccccc1` [NCL 138] the figure was over 128 µg/mL.
Turning to `Cl.N=C(NN=Cc1cnc2ccccc2c1)NN=Cc1cnc2ccccc2c1` [NCL 139], the “MIC (μg/ml) at 24 hours, VRE 1” value is over 128 µg/mL.
With `Cl.N=C(NN=Cc1csc2ccc(Cl)cc12)NN=Cc1csc2ccc(Cl)cc12` [NCL 141], the “MIC (μg/ml) at 24 hours, VRE 1” value was found to be 16 µg/mL.
The same measure, in the same setting: with `Cl.N=C(NNCc1ccccc1)NNCc1ccccc1` [NCL 142] the figure was over 128 µg/mL; with `CC(=NNC(=N)NN=C(C)c1ccccc1)c1ccccc1.Cl` [NCL 143], 8 µg/mL.
On the same count and under the same terms, with `Cl.N=C(NN=Cc1ccc(Br)o1)NN=Cc1ccc(Br)o1` [NCL 144] the figure was over 128 µg/mL.

Staying with this assay, now noted: VRE 2; 24 hours; duplicate lines per compound.
Regarding `Cl.N=C(NN=Cc1cc(Br)co1)NN=Cc1cc(Br)co1` [NCL 133], the “MIC (μg/ml) at 24 hours, VRE 2” value is over 128 µg/mL.
Take `Cl.N=C(N/N=C/c1ccc(Br)cc1)N/N=C/c1ccc(Br)cc1` [NCL 134]: the “MIC (μg/ml) at 24 hours, VRE 2” value was over 128 µg/mL.
As for `COc1cc(Br)c(C=NNC(=N)NN=Cc2cc(OC)c(OC)cc2Br)cc1OC.Cl` [NCL 135], the “MIC (μg/ml) at 24 hours, VRE 2” value is over 128 µg/mL.
Still for that read-out and setting: with `CCCCc1ccc(C=NNC(=N)NN=Cc2ccc(CCCC)cc2)cc1.Cl` [NCL 136] the figure was 128 µg/mL; with `Cl.N=C(NN=Cc1c(Cl)cccc1Cl)NN=Cc1c(Cl)cccc1Cl` [NCL 137], over 128 µg/mL.
Still for that read-out and setting: with `Cl.N=C(NN=CC(=Cc1ccccc1)c1ccccc1)NN=CC(=Cc1ccccc1)c1ccccc1` [NCL 138] the figure was over 128 µg/mL; with `Cl.N=C(NN=Cc1cnc2ccccc2c1)NN=Cc1cnc2ccccc2c1` [NCL 139], over 128 µg/mL.
On the same count and under the same terms, with `CSc1ccc(C=NNC(=N)NN=Cc2ccc(SC)cc2)cc1.Cl` [NCL 140] the figure was 8 µg/mL and 16 µg/mL.
In the case of `Cl.N=C(NN=Cc1csc2ccc(Cl)cc12)NN=Cc1csc2ccc(Cl)cc12` [NCL 141], the “MIC (μg/ml) at 24 hours, VRE 2” value was over 128 µg/mL.
Same read-out and setting: with `Cl.N=C(NNCc1ccccc1)NNCc1ccccc1` [NCL 142] the figure was over 128 µg/mL.
The same measure, in the same setting: the result for `CC(=NNC(=N)NN=C(C)c1ccccc1)c1ccccc1.Cl` [NCL 143] reads 8 µg/mL; that for `Cl.N=C(NN=Cc1ccc(Br)o1)NN=Cc1ccc(Br)o1` [NCL 144], over 128 µg/mL.
